# Measurements reported in ChEMBL document CHEMBL1148964, “New furofuran and butyrolactone lignans with antioxidant activity from the stem bark of Styrax japonica” (J Nat Prod, 2004).
# Test system: Radical scavenging activity
# Experiment: Antioxidant activity assessed as DPPH radical scavenging activity after 30 mins
# Type: functional
row,IC50 [µM],SMILES
1,> 500,COc1cc([C@@H]2OC[C@@H]3[C@H]2C(=O)O[C@H]3c2ccc3c(c2)OCO3)ccc1O[C@@H]1O[C@H](CO)[C@@H](O)[C@H](O)[C@H]1O [STYRAXLIGNOLIDE B]
2,194,COc1cc(C[C@@H]2COC(=O)[C@H]2Cc2ccc(O[C@@H]3O[C@H](CO)[C@@H](O)[C@H](O)[C@H]3O)c(OC)c2)ccc1O [STYRAXLIGNOLIDE E]
3,278,COc1cc(C[C@@H]2C(=O)OC[C@H]2Cc2ccc(O[C@@H]3O[C@H](CO)[C@@H](O)[C@H](O)[C@H]3O)c(OC)c2)ccc1O [STYRAXLIGNOLIDE D]
4,380,COc1ccc(C[C@@H]2C(=O)OC[C@H]2Cc2ccc(O[C@@H]3O[C@H](CO)[C@@H](O)[C@H](O)[C@H]3O)c(OC)c2)cc1O [STYRAXLIGNOLIDE C]
5,> 500,COc1ccc(C[C@@H]2C(=O)OC[C@H]2Cc2ccc(O[C@@H]3O[C@H](CO)[C@@H](O)[C@H](O)[C@H]3O)c(OC)c2)cc1OC [STYRAXLIGNOLIDE F]
6,20.1,Cc1c(C)c2c(c(C)c1O)CC[C@@](C)(CCC[C@H](C)CCC[C@H](C)CCCC(C)C)O2 [ALPHA-TOCOPHEROL]
7,> 500,CC1(C)CC[C@]2(C)CC=C3[C@]4(C)CC[C@H]5C(C)(C)[C@@H](O)CC[C@]5(C)[C@H]4CC[C@@]3(C)[C@@H]2C1 [TARAXEROL]

row,SMILES,IC50 [µM]
1,COc1cc(/C=C/CO)cc(OC)c1O[C@@H]1O[C@H](CO)[C@@H](O)[C@H](O)[C@H]1O [SYRINGIN],> 500
